Test results published in PubChem BioAssay (NCI).
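Method: 48-hour compound exposure of cells in 96-well plates, five concentrations, linear interpolation of endpoints. TGI is the concentration that stops growth completely.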

Key:
Assay in all cases: growth of human tumour cells (NCI), 48 h
786-0 renal = tested on: 786-0 renal
A498 renal = tested on: A498 renal
A549 NSCLC = tested on: A549 NSCLC
ACHN renal = tested on: ACHN renal
BT-549 breast = tested on: BT-549 breast
CAKI-1 renal = tested on: CAKI-1 renal
CCRF-CEM leukemia = tested on: CCRF-CEM leukemia
COLO 205 colon = tested on: COLO 205 colon
DU-145 prostate = tested on: DU-145 prostate
EKVX NSCLC = tested on: EKVX NSCLC
HCC-2998 colon = tested on: HCC-2998 colon
HCT-116 colon = tested on: HCT-116 colon
HCT-15 colon = tested on: HCT-15 colon
HL-60(TB) leukemia = tested on: HL-60(TB) leukemia
HOP-62 NSCLC = tested on: HOP-62 NSCLC
HOP-92 NSCLC = tested on: HOP-92 NSCLC
HS 578T breast = tested on: HS 578T breast
HT29 colon = tested on: HT29 colon
IGROV1 ovarian = tested on: IGROV1 ovarian
K-562 leukemia = tested on: K-562 leukemia
KM12 colon = tested on: KM12 colon
LOX IMVI melanoma = tested on: LOX IMVI melanoma
M14 melanoma = tested on: M14 melanoma
MALME-3M melanoma = tested on: MALME-3M melanoma
MCF7 breast = tested on: MCF7 breast
MDA-MB-231 breast = tested on: MDA-MB-231 breast
MDA-MB-435 = tested on: MDA-MB-435
MDA-N = tested on: MDA-N
MOLT-4 leukemia = tested on: MOLT-4 leukemia
NCI-H226 lung = tested on: NCI-H226 lung
NCI-H23 lung = tested on: NCI-H23 lung
NCI-H460 lung = tested on: NCI-H460 lung
NCI-H522 lung = tested on: NCI-H522 lung
NCI/ADR-RES ovarian = tested on: NCI/ADR-RES ovarian
OVCAR-3 ovarian = tested on: OVCAR-3 ovarian
OVCAR-4 ovarian = tested on: OVCAR-4 ovarian
OVCAR-5 ovarian = tested on: OVCAR-5 ovarian
OVCAR-8 ovarian = tested on: OVCAR-8 ovarian
PC-3 prostate = tested on: PC-3 prostate
RPMI-8226 leukemia = tested on: RPMI-8226 leukemia
RXF 393 renal = tested on: RXF 393 renal
SF-268 CNS = tested on: SF-268 CNS
SF-295 CNS = tested on: SF-295 CNS
SF-539 CNS = tested on: SF-539 CNS
SK-MEL-2 melanoma = tested on: SK-MEL-2 melanoma
SK-MEL-28 melanoma = tested on: SK-MEL-28 melanoma
SK-MEL-5 melanoma = tested on: SK-MEL-5 melanoma
SK-OV-3 ovarian = tested on: SK-OV-3 ovarian
SN12C renal = tested on: SN12C renal
SNB-19 CNS = tested on: SNB-19 CNS
SR leukemia = tested on: SR leukemia
SW-620 colon = tested on: SW-620 colon
T-47D breast = tested on: T-47D breast
TK-10 renal = tested on: TK-10 renal
U251 CNS = tested on: U251 CNS
UACC-257 melanoma = tested on: UACC-257 melanoma
UACC-62 melanoma = tested on: UACC-62 melanoma
UO-31 renal = tested on: UO-31 renal
SNB-75 CNS = tested on: SNB-75 CNS

C=CCCCCCCCCCOC1C=CC(OC(C)=O)C(COC(C)=O)O1 (centres undefined)
TGI (786-0 renal): > 100 µM | TGI (A498 renal): > 100 µM | TGI (A549 NSCLC): > 100 µM | TGI (ACHN renal): > 100 µM | TGI (BT-549 breast): > 100 µM | TGI (CAKI-1 renal): > 100 µM | TGI (CCRF-CEM leukemia): > 100 µM | TGI (COLO 205 colon): > 100 µM | TGI (DU-145 prostate): > 100 µM | TGI (EKVX NSCLC): > 100 µM | TGI (HCC-2998 colon): > 100 µM | TGI (HCT-116 colon): > 100 µM | TGI (HCT-15 colon): > 100 µM | TGI (HL-60(TB) leukemia): > 100 µM | TGI (HOP-62 NSCLC): > 100 µM | TGI (HOP-92 NSCLC): > 100 µM | TGI (HS 578T breast): 63 µM | TGI (HT29 colon): 48.1 µM | TGI (IGROV1 ovarian): > 100 µM | TGI (K-562 leukemia): 17.4 µM | TGI (KM12 colon): > 100 µM | TGI (LOX IMVI melanoma): > 100 µM | TGI (M14 melanoma): 88.9 µM | TGI (MALME-3M melanoma): > 100 µM | TGI (MCF7 breast): > 100 µM | TGI (MDA-MB-231 breast): > 100 µM | TGI (MDA-MB-435): > 100 µM | TGI (MDA-N): > 100 µM | TGI (MOLT-4 leukemia): 86 µM | TGI (NCI-H226 lung): > 100 µM | TGI (NCI-H23 lung): > 100 µM | TGI (NCI-H460 lung): > 100 µM | TGI (NCI-H522 lung): > 100 µM | TGI (NCI/ADR-RES ovarian): > 100 µM | TGI (OVCAR-3 ovarian): > 100 µM | TGI (OVCAR-4 ovarian): > 100 µM | TGI (OVCAR-5 ovarian): > 100 µM | TGI (OVCAR-8 ovarian): 43.4 µM | TGI (PC-3 prostate): > 100 µM | TGI (RPMI-8226 leukemia): 84.6 µM | TGI (RXF 393 renal): > 100 µM | TGI (SF-268 CNS): > 100 µM | TGI (SF-295 CNS): > 100 µM | TGI (SF-539 CNS): > 100 µM | TGI (SK-MEL-2 melanoma): > 100 µM | TGI (SK-MEL-28 melanoma): > 100 µM | TGI (SK-MEL-5 melanoma): > 100 µM | TGI (SK-OV-3 ovarian): > 100 µM | TGI (SN12C renal): > 100 µM | TGI (SNB-19 CNS): > 100 µM | TGI (SR leukemia): > 100 µM | TGI (SW-620 colon): > 100 µM | TGI (T-47D breast): > 100 µM | TGI (TK-10 renal): > 100 µM | TGI (U251 CNS): > 100 µM | TGI (UACC-257 melanoma): 95.8 µM | TGI (UACC-62 melanoma): > 100 µM | TGI (UO-31 renal): > 100 µM

COc1cc2c(cc1OC)-c1cc3cc(OC)c(OC)cc3c(=O)n1CC2
TGI (786-0 renal): > 100 µM | TGI (A498 renal): 45.2 µM | TGI (A549 NSCLC): > 100 µM | TGI (ACHN renal): > 86 µM | TGI (BT-549 breast): > 100 µM | TGI (CAKI-1 renal): > 30.3 µM | TGI (CCRF-CEM leukemia): > 100 µM | TGI (COLO 205 colon): > 100 µM | TGI (DU-145 prostate): > 51.5 µM | TGI (EKVX NSCLC): > 100 µM | TGI (HCC-2998 colon): > 100 µM | TGI (HCT-116 colon): > 53.4 µM | TGI (HCT-15 colon): > 100 µM | TGI (HL-60(TB) leukemia): > 100 µM | TGI (HOP-62 NSCLC): > 72.8 µM | TGI (HOP-92 NSCLC): 10.5 µM | TGI (HS 578T breast): > 57.5 µM | TGI (HT29 colon): > 100 µM | TGI (IGROV1 ovarian): > 62.3 µM | TGI (K-562 leukemia): > 100 µM | TGI (KM12 colon): > 100 µM | TGI (LOX IMVI melanoma): > 100 µM | TGI (M14 melanoma): > 100 µM | TGI (MALME-3M melanoma): > 79.5 µM | TGI (MCF7 breast): > 100 µM | TGI (MDA-MB-231 breast): > 70.4 µM | TGI (MDA-MB-435): > 100 µM | TGI (MDA-N): > 100 µM | TGI (MOLT-4 leukemia): > 100 µM | TGI (NCI-H226 lung): > 85.9 µM | TGI (NCI-H23 lung): > 100 µM | TGI (NCI-H460 lung): > 100 µM | TGI (NCI-H522 lung): > 25.7 µM | TGI (NCI/ADR-RES ovarian): > 80.1 µM | TGI (OVCAR-3 ovarian): > 100 µM | TGI (OVCAR-4 ovarian): > 100 µM | TGI (OVCAR-5 ovarian): > 100 µM | TGI (OVCAR-8 ovarian): > 100 µM | TGI (PC-3 prostate): > 100 µM | TGI (RPMI-8226 leukemia): 47.2 µM | TGI (RXF 393 renal): > 69.8 µM | TGI (SF-268 CNS): > 100 µM | TGI (SF-295 CNS): > 100 µM | TGI (SF-539 CNS): 50.9 µM | TGI (SK-MEL-2 melanoma): > 72.9 µM | TGI (SK-MEL-28 melanoma): > 100 µM | TGI (SK-MEL-5 melanoma): 25.9 µM | TGI (SK-OV-3 ovarian): > 100 µM | TGI (SN12C renal): > 100 µM | TGI (SNB-19 CNS): > 100 µM | TGI (SNB-75 CNS): > 79.3 µM | TGI (SR leukemia): > 100 µM | TGI (SW-620 colon): > 100 µM | TGI (T-47D breast): 8.34 µM | TGI (TK-10 renal): > 100 µM | TGI (U251 CNS): > 100 µM | TGI (UACC-257 melanoma): > 78.4 µM | TGI (UACC-62 melanoma): 34.7 µM | TGI (UO-31 renal): 13.2 µM

CC(NC(=O)C(N)CC(=O)O)NC(=O)N(C)C(C)(C)C (centres undefined)
TGI (786-0 renal): > 100 µM | TGI (A549 NSCLC): > 100 µM | TGI (ACHN renal): > 100 µM | TGI (BT-549 breast): > 100 µM | TGI (CAKI-1 renal): > 100 µM | TGI (CCRF-CEM leukemia): > 100 µM | TGI (COLO 205 colon): > 100 µM | TGI (DU-145 prostate): > 100 µM | TGI (EKVX NSCLC): > 100 µM | TGI (HCC-2998 colon): > 100 µM | TGI (HCT-116 colon): > 100 µM | TGI (HCT-15 colon): > 100 µM | TGI (HL-60(TB) leukemia): > 100 µM | TGI (HOP-62 NSCLC): > 100 µM | TGI (HS 578T breast): > 100 µM | TGI (HT29 colon): > 100 µM | TGI (IGROV1 ovarian): > 100 µM | TGI (K-562 leukemia): > 100 µM | TGI (KM12 colon): > 100 µM | TGI (LOX IMVI melanoma): > 100 µM | TGI (M14 melanoma): > 100 µM | TGI (MALME-3M melanoma): > 100 µM | TGI (MCF7 breast): > 100 µM | TGI (MDA-MB-231 breast): > 100 µM | TGI (MDA-MB-435): > 100 µM | TGI (MDA-N): > 100 µM | TGI (MOLT-4 leukemia): > 100 µM | TGI (NCI-H226 lung): > 100 µM | TGI (NCI-H23 lung): > 100 µM | TGI (NCI-H460 lung): > 100 µM | TGI (NCI-H522 lung): > 100 µM | TGI (NCI/ADR-RES ovarian): > 100 µM | TGI (OVCAR-3 ovarian): > 100 µM | TGI (OVCAR-4 ovarian): > 100 µM | TGI (OVCAR-5 ovarian): > 100 µM | TGI (OVCAR-8 ovarian): > 100 µM | TGI (PC-3 prostate): > 100 µM | TGI (RPMI-8226 leukemia): > 100 µM | TGI (RXF 393 renal): > 100 µM | TGI (SF-268 CNS): > 100 µM | TGI (SF-295 CNS): > 100 µM | TGI (SF-539 CNS): > 100 µM | TGI (SK-MEL-2 melanoma): > 100 µM | TGI (SK-MEL-28 melanoma): > 100 µM | TGI (SK-MEL-5 melanoma): > 100 µM | TGI (SK-OV-3 ovarian): > 100 µM | TGI (SN12C renal): > 100 µM | TGI (SNB-19 CNS): > 100 µM | TGI (SNB-75 CNS): > 100 µM | TGI (SR leukemia): > 100 µM | TGI (SW-620 colon): > 100 µM | TGI (T-47D breast): > 100 µM | TGI (TK-10 renal): > 100 µM | TGI (U251 CNS): > 100 µM | TGI (UACC-257 melanoma): > 100 µM | TGI (UACC-62 melanoma): > 100 µM | TGI (UO-31 renal): > 100 µM
